Laboratory results as given in patent US20260373266A1, “PROTEIN DEGRADERS AND USES THEREOF” (KYMERA THERAPEUTICS, INC., priority 2022, published 2026).

Target: T1, DCAF1 WD40 domain (residues 1077-1390) (Homo sapiens, UniProt Q9Y4B6)
T1 construct: DCAF1 WD40 domain (residues 1077-1390)
Test: DCAF1 binding assay by SPR (Biacore 8K+), DCAF1-3 KD
Settings: 25 °C, read-out: DCAF1-3 SPR (KD)

T1 sequence (Q9Y4B6 1077-1390): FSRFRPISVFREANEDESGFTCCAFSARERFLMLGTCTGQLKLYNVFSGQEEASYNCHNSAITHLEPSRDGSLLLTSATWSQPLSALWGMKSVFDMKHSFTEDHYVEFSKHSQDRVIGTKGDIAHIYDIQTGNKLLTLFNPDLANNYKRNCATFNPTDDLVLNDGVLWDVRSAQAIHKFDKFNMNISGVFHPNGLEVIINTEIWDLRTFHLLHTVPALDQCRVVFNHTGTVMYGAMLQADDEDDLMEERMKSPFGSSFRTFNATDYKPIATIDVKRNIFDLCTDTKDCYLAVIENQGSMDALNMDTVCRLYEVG

Row | SMILES | Kd
1 | C=CC(=O)NCCCCN1CCN(c2ccnc(N[C@@H]3CCCN(c4cccc(F)c4)C3)c2)CC1 [I-633] | 10 to 100 µM
2 | C=CC(=O)NCC1CCCN(c2ccnc(N[C@@H]3CCCN(c4cccc(F)c4)C3)c2)C1 (stereo partly drawn) [I-634] | 10 to 100 µM
3 | Fc1cccc(N2CCC[C@@H]3[C@H]2CCN3c2cc(N3CCCCCC3)ccn2)c1 [I-635] | 10 to 100 µM
4 | Fc1cccc(N2CCC[C@H]3[C@@H]2CCN3c2cc(N3CCCCCC3)ccn2)c1 [I-636] | < 10 µM
5 | Cc1cccc(F)c1-c1c(C(=O)N[C@@H](CC(N)=O)c2cccc(Cl)c2)c[nH]c1C#N [I-637] | < 10 µM
6 | CCc1cccc([C@H](CC(N)=O)NC(=O)c2cn[nH]c2-c2ccccc2F)c1 [I-638] | > 200 µM
7 | CCc1cccc([C@@H](CC(N)=O)NC(=O)c2cn[nH]c2-c2ccccc2F)c1 [I-639] | 100 to 200 µM
8 | Fc1cccc(N2CCC[C@@H](Nc3cc(N4CCC5CCC4C5)ccn3)C2)c1 (stereo partly drawn) [I-640] | 10 to 100 µM
9 | C=CC(=O)N1C[C@H](c2ccc(Br)cc2)[C@@H]1C(=O)N1CCN(c2ccnc(N[C@@H]3CCCN(c4cccc(F)c4)C3)c2)CC1 [I-641] | 10 to 100 µM
10 | C=CC(=O)N1CCC2(CC1)CCN(c1ccnc(N[C@@H]3CCCN(c4cccc(F)c4)C3)c1)CC2 [I-642] | 10 to 100 µM
11 | C[C@H]1CCCCN1c1ccnc(N2CC[C@@H]3[C@H]2CCCN3c2cccc(F)c2)c1 [I-643] | < 10 µM
12 | C[C@H]1CCCCN1c1ccnc(N2CC[C@H]3[C@@H]2CCCN3c2cccc(F)c2)c1 [I-644] | 10 to 100 µM
13 | Fc1cccc(N[C@@H]2CCCN(c3cc(N4CCCCC4)ccn3)C2)c1 [I-645] | > 200 µM
14 | O=c1[nH]cc(C2CCOCC2)cc1N[C@@H]1CCCN(c2cccc(F)c2)C1 [I-646] | 10 to 100 µM
15 | O=c1[nH]cc(C2=CCOCC2)cc1N[C@@H]1CCCN(c2cccc(F)c2)C1 [I-647] | 10 to 100 µM
16 | Cc1cccc(F)c1-c1c(C(=O)N[C@@H](CC(N)=O)c2cccc(Cl)c2)c[nH]c1C(=O)c1ncccn1 [I-648] | < 10 µM
17 | NCCOCCOCCOCCC1CCN(c2ccnc(N3CC[C@@H]4[C@H]3CCCN4c3cccc(F)c3)c2)CC1 [I-649] | < 10 µM
18 | NCCOCCOCCOCCOCCC1CCN(c2ccnc(N3CC[C@@H]4[C@H]3CCCN4c3cccc(F)c3)c2)CC1 [I-650] | > 200 µM
19 | NCCOCCOCCOCCOCCOCCC1CCN(c2ccnc(N3CC[C@@H]4[C@H]3CCCN4c3cccc(F)c3)c2)CC1 [I-651] | < 10 µM
20 | C=CC(=O)NC1CC2(CCN(c3ccnc(N[C@@H]4CCCN(c5cccc(F)c5)C4)c3)CC2)C1 [I-652] | < 10 µM
21 | Cc1c(F)ccc(F)c1-c1c(C(=O)N[C@@H](CC(N)=O)c2cccc(Cl)c2)c[nH]c1C(=O)c1ccccc1 [I-653] | < 10 µM

Row | SMILES | Kd
22 | COCCC1C2CCC1CN(c1ccnc(N[C@@H]3CCCN(c4cccc(F)c4)C3)c1)C2 (stereo partly drawn) [I-654] | < 10 µM
23 | C=CC(=O)N1CCN(c2ccnc(N[C@@H]3CCCN(c4cccc(F)c4)C3)c2)CC1C(F)(F)F (stereo partly drawn) [I-655] | > 200 µM
24 | Cc1cccc(F)c1-c1c(C(=O)N[C@@H](CC(N)=O)c2cccc(Cl)c2)c[nH]c1-c1ccccn1 [I-656] | < 10 µM
25 | C=CC(=O)NC1CCC2(CC1)CCN(c1ccnc(N[C@@H]3CCCN(c4cccc(F)c4)C3)c1)CC2 [I-657] | < 10 µM
26 | CC1(C)CCCCN1c1ccnc(N[C@@H]2CCCN(c3cccc(F)c3)C2)c1 [I-658] | 10 to 100 µM
27 | Fc1cccc(N2CC[C@@]3(CCN(c4cc(N5CCCCC5)ccn4)C3)C2)c1 [I-659] | 10 to 100 µM
28 | CN(c1cccc(F)c1)C1CCCN(c2cc(N3CCCCC3)ccn2)C1 (stereo not drawn) [I-660] | > 200 µM
29 | NCCOCCOCCOCCOCCOCCOCCC1CCN(c2ccnc(N3CC[C@@H]4[C@H]3CCCN4c3cccc(F)c3)c2)CC1 [I-661] | < 10 µM
30 | NCCCCCCCCCCCCCCCCCC(=O)c1[nH]cc(C(=O)N[C@@H](CC(N)=O)c2cccc(Cl)c2)c1-c1ccccc1F [I-662] | > 200 µM
31 | NCCCCCCCCCCCCCCC(=O)c1[nH]cc(C(=O)N[C@@H](CC(N)=O)c2cccc(Cl)c2)c1-c1ccccc1F [I-663] | > 200 µM
32 | C=CC(=O)NCCC1CCCN(c2ccnc(N[C@@H]3CCCN(c4cccc(F)c4)C3)c2)C1 (stereo partly drawn) [I-664] | 10 to 100 µM
33 | C=CC(=O)NCC1CCN(c2ccnc(N3CC[C@@H]4[C@H]3CCCN4c3cccc(F)c3)c2)CC1 [I-665] | 10 to 100 µM
34 | C=CC(=O)NCCC1CCN(c2ccnc(N3CC[C@@H]4[C@H]3CCCN4c3cccc(F)c3)c2)CC1 [I-666] | > 200 µM
35 | Fc1cccc(N2CC[C@@H]3CN(c4cc(N5CCCCC5)ccn4)C[C@@H]32)c1 [I-667] | 10 to 100 µM
36 | Fc1cccc(N2CCC[C@@H]3CN(c4cc(N5CCCCC5)ccn4)C[C@@H]32)c1 [I-668] | 10 to 100 µM
37 | O=C(Nc1nc2c(s1)CCCC2)[C@@H]1CCCN(c2cccc(F)c2)C1 [I-669] | > 200 µM
38 | NCCCCCCCCCCCCCCCCCCCCC(=O)c1[nH]cc(C(=O)N[C@@H](CC(N)=O)c2cccc(Cl)c2)c1-c1ccccc1F [I-670] | > 200 µM
39 | C=CC(=O)NCC1CCN(c2ccnc(N3CC[C@H]4[C@@H]3CCCN4c3cccc(F)c3)c2)CC1 [I-671] | < 10 µM
40 | C=CC(=O)NCCC1CCN(c2ccnc(N3CC[C@H]4[C@@H]3CCCN4c3cccc(F)c3)c2)CC1 [I-672] | < 10 µM
41 | CN(c1cccc(F)c1)[C@@H]1CCN(c2cc(N3CCCCC3)ccn2)C1 [I-673] | < 10 µM
42 | NCCOCCOCCOCCOCC(=O)c1[nH]cc(C(=O)N[C@@H](CC(N)=O)c2cccc(Cl)c2)c1-c1ccccc1F [I-674] | < 10 µM

Row | SMILES | Kd
43 | NCCOCCOCCOCCOCCOCC(=O)c1[nH]cc(C(=O)N[C@@H](CC(N)=O)c2cccc(Cl)c2)c1-c1ccccc1F [I-675] | < 10 µM
44 | NCCOCCOCCOCCOCCOCCOCC(=O)c1[nH]cc(C(=O)N[C@@H](CC(N)=O)c2cccc(Cl)c2)c1-c1ccccc1F [I-676] | < 10 µM
45 | c1cc(N2CCOCC2)cc(N[C@@H]2CCCN(c3ccc(OCCN4CCCC4)nc3)C2)n1 [I-677] | 10 to 100 µM
46 | c1cc(N2CCOCC2)cc(N[C@@H]2CCCN(c3nccc(N4CCCC4)n3)C2)n1 [I-678] | 10 to 100 µM
47 | Clc1cc(N2CCC[C@@H](Nc3cc(N4CCOCC4)ccn3)C2)nc(C2CC2)n1 [I-679] | > 200 µM
48 | c1ccc(Cn2ccc3c(N4CCC[C@@H](Nc5cc(N6CCOCC6)ccn5)C4)ncnc32)cc1 [I-680] | 100 to 200 µM
49 | Clc1nc2c(c(N3CCC[C@@H](Nc4cc(N5CCOCC5)ccn4)C3)n1)CCNC2 [I-681] | 10 to 100 µM
50 | Nc1ccc(F)cc1N1CCC[C@@H](Nc2cc(N3CCOCC3)ccn2)C1 [I-682] | < 10 µM
51 | N[C@@H](c1ccccc1)c1ccc(N2CCC[C@@H](Nc3cc(N4CCOCC4)ccn3)C2)cc1 [I-683] | 10 to 100 µM
52 | c1cc(N2CCOCC2)cc(N[C@@H]2CCCN(c3ncnc4c3ncn4[C@@H]3CCCCO3)C2)n1 [I-684] | 10 to 100 µM
53 | c1ccc(-c2nc3cccc(N4CCC[C@@H](Nc5cc(N6CCOCC6)ccn5)C4)c3o2)cc1 [I-685] | > 200 µM
54 | CN1CCN(c2ccc(N3CCC[C@@H](Nc4cc(N5CCOCC5)ccn4)C3)nc2)CC1 [I-686] | > 200 µM
55 | c1cc(N2CCOCC2)cc(N[C@@H]2CCCN(c3ccnc(OC4CC4)c3)C2)n1 [I-687] | 10 to 100 µM
56 | c1ccc(-n2cnc3cc(N4CCC[C@@H](Nc5cc(N6CCOCC6)ccn5)C4)ccc32)cc1 [I-688] | > 200 µM
57 | c1cc(CN2CCCC2)cc(N2CCC[C@@H](Nc3cc(N4CCOCC4)ccn3)C2)c1 [I-689] | < 10 µM
58 | c1ccc(COc2cccc(N3CCC[C@@H](Nc4cc(N5CCOCC5)ccn4)C3)c2)cc1 [I-690] | > 200 µM
59 | OCCc1ccc(N2CCC[C@@H](Nc3cc(N4CCOCC4)ccn3)C2)nc1 [I-691] | 10 to 100 µM
60 | c1cn(Cc2ccc(N3CCC[C@@H](Nc4cc(N5CCOCC5)ccn4)C3)cc2)cn1 [I-692] | 100 to 200 µM
61 | CC(C)CNc1ccc(N2CCC[C@@H](Nc3cc(N4CCOCC4)ccn3)C2)cc1 [I-693] | 10 to 100 µM
62 | CCCn1cc(N2CCC[C@@H](Nc3cc(N4CCOCC4)ccn3)C2)cn1 [I-694] | > 200 µM
63 | c1csc(-c2ccc(N3CCC[C@@H](Nc4cc(N5CCOCC5)ccn4)C3)cc2)c1 [I-695] | 10 to 100 µM

Row | SMILES | Kd
64 | OCc1cnc2ccc(N3CCC[C@@H](Nc4cc(N5CCOCC5)ccn4)C3)nn12 [I-696] | 10 to 100 µM
65 | O=C(O)C1(c2cccc(N3CCC[C@@H](Nc4cc(N5CCOCC5)ccn4)C3)c2)CCCC1 [I-697] | 10 to 100 µM
66 | COc1ccc(-c2ccncc2)cc1N1CCC[C@@H](Nc2cc(N3CCOCC3)ccn2)C1 [I-698] | 10 to 100 µM
67 | Cc1cccc(F)c1-c1c(C(=O)N[C@@H](CC(N)=O)c2cccc(Cl)c2)c[nH]c1C(=O)c1ccccn1 [I-699] | < 10 µM
68 | Cc1cccc(F)c1-c1c(C(=O)N[C@@H](CC(N)=O)c2cccc(Cl)c2)c[nH]c1C(=O)c1cccc(N2CCCCC2)c1 [I-700] | < 10 µM
69 | OC1CCCN(c2ccnc(N[C@@H]3CCCN(c4cccc(F)c4)C3)c2)C1 (stereo partly drawn) [I-701] | < 10 µM
70 | Cc1c(F)ccc(F)c1-c1c(C(=O)N[C@@H](CC(N)=O)c2cccc(Cl)c2)c[nH]c1C(=O)c1cccc(-c2ccccc2)c1 [I-702] | < 10 µM
71 | Fc1cccc(N2CCC[C@@H]3[C@H]2CCCN3c2cc(N3CCCCC3)ccn2)c1 [I-703] | > 200 µM
72 | COCCOCC[C@@H]1CCCN(c2ccnc(N3CC[C@@H]4[C@H]3CCCN4c3cccc(F)c3)c2)C1 [I-704] | > 200 µM
73 | C=CC(=O)NCCCC1CCN(c2ccnc(N3CC[C@@H]4[C@H]3CCCN4c3cccc(F)c3)c2)CC1 [I-705] | 100 to 200 µM
74 | Cc1cccc(N2CCC[C@@H]3[C@H]2CCN3c2cc(N3CC4CC(C4)C3)ccn2)c1 [I-706] | < 10 µM
75 | Clc1cccc(N2CCC[C@@H]3[C@H]2CCN3c2cc(N3CC4CC(C4)C3)ccn2)c1 [I-707] | > 200 µM
76 | c1ccc(N2CCC[C@@H]3[C@H]2CCN3c2cc(N3CC4CC(C4)C3)ccn2)cc1 [I-708] | < 10 µM
77 | Oc1ccc(N2CCC[C@@H]3[C@H]2CCN3c2cc(N3CC4CC(C4)C3)ccn2)cc1 [I-709] | 10 to 100 µM
78 | c1ccc(N2CCC[C@H]3[C@@H]2CCN3c2cc(N3CC4CC(C4)C3)ccn2)cc1 [I-710] | 10 to 100 µM
79 | Cc1cccc(N2CCC[C@H]3[C@@H]2CCN3c2cc(N3CC4CC(C4)C3)ccn2)c1 [I-711] | 10 to 100 µM
80 | C=CC(=O)NCCCC1CCN(c2ccnc(N3CC[C@H]4[C@@H]3CCCN4c3cccc(F)c3)c2)CC1 [I-712] | < 10 µM
81 | COCCOCC[C@H]1CCCN(c2ccnc(N3CC[C@@H]4[C@H]3CCCN4c3cccc(F)c3)c2)C1 [I-713] | 10 to 100 µM
